Results: paper PMC8565515, “Dasabuvir Inhibits Human Norovirus Infection in Human Intestinal Enteroids” (mSphere, 2021)
Structures can show the parent of a compound that is named as a salt. Where two headings read alike, the source gives them in different places.

Assays:
GII.4 HuNoV = GII.4 HuNoV infection of HIE monolayers, viral genome equivalents by RT-qPCR; type: cell-based, human norovirus; details: for activity at 10 µM: Norovirus, 24 h, read-out: (%) HuNoV GEs
[1] = compound 10 μM, n = 1, J2 HIE monolayers, GII.4 HuNoV, 24 hpi, normalized to DMSO control

Compound	(%) Cytotoxicity (J2 HIE monolayers; human, 24 h, 10 μM)	activity at 10 µM (GII.4 HuNoV; [1])	further results
COC(=O)C1=C(C)NC(c2ncc(F)cc2F)=NC1c1ccc(F)cc1Cl (racemic) [Bay 41-4109 racemate]			(%) HuNoV GEs (GII.4 HuNoV; [1]): 39.26%
N[C@@H](CCC(=O)N[C@@H](CS[C@@H]1CCn2ccc(CO)c21)C(=O)NCC(=O)O)C(=O)O [6466-0862]			(%) Cytotoxicity (J2 HIE monolayers): -0.22%; (%) HuNoV GEs (GII.4 HuNoV; [1]): 155.85%
COC(=O)C(C)(N)C(C)(C)C (stereo not shown) [6526-0824]			(%) Cytotoxicity (J2 HIE monolayers): 2.41%; (%) HuNoV GEs (GII.4 HuNoV; [1]): 131.97%
O=C(O[C@@H]1Cc2c(O)cc(O)cc2O[C@@H]1c1cc(O)c(O)c(O)c1)c1cc(O)c(O)c(O)c1 [(-)-Epigallocatechin Gallate]	2.41%	198%	
Nc1nc(NC2CC2)c2ncn([C@H]3C=C[C@@H](CO)C3)c2n1 [Abacavir]	0.27%	64.9%	
Nc1nc2c(ncn2COCCO)c(=O)[nH]1 [Aciclovir]	0.59%	54.4%	
CC(C)(C)C(=O)OCOP(=O)(COCCn1cnc2c(N)ncnc21)OCOC(=O)C(C)(C)C [Adefovir dipivoxil]	3.59%		activity at 10 µM (GII.4 HuNoV): 67.1%
O=C1c2cccc(O)c2C(=O)c2c(O)cc(CO)cc21 [Aloe-emodin]	0.59%	253%	
NC12CC3CC(CC(C3)C1)C2 [Amantadine hydrochloride]		232%	
Cc1cccc(C)c1N(CC(=O)Nc1ccc(-c2ncon2)cc1)C(=O)C1CCS(=O)(=O)CC1 [Amenamevir]	0.09%	61.7%	
CC1(C)S[C@@H]2[C@H](NC(=O)[C@H](N)c3ccccc3)C(=O)N2[C@H]1C(=O)O [Ampicillin Trihydrate]	1.14%	100%	
CC(C)CN(C[C@@H](O)[C@H](Cc1ccccc1)NC(=O)O[C@H]1CCOC1)S(=O)(=O)c1ccc(N)cc1 [Amprenavir]	-0.21%	15.9%	
C[C@@H]1CC[C@H]2[C@@H](C)C(=O)O[C@@H]3O[C@@]4(C)CC[C@@H]1[C@]32OO4 [Artemisinin]	1.63%	51.7%	
COC(=O)N[C@H](C(=O)N[C@@H](Cc1ccccc1)[C@@H](O)CN(Cc1ccc(-c2ccccn2)cc1)NC(=O)[C@@H](NC(=O)OC)C(C)(C)C)C(C)(C)C [Atazanavir]	0.72%	66.4%	
CC1(C)S[C@@H]2[C@H](NC(=O)[C@H](NC(=O)N3CCNC3=O)c3ccccc3)C(=O)N2[C@H]1C(=O)O [Azlocillin sodium]		28%	
O=C(O)[C@H]1O[C@@H](Oc2cc3oc(-c4ccccc4)cc(=O)c3c(O)c2O)[C@H](O)[C@@H](O)[C@@H]1O [Baicalin]		97.7%	
OC[C@H]1O[C@@H]2O[C@H]3[C@H](O)[C@@H](O)[C@@H](O[C@H]4[C@H](O)[C@@H](O)[C@@H](O[C@H]5[C@H](O)[C@@H](O)[C@@H](O[C@H]6[C@H](O)[C@@H](O)[C@@H](O[C@H]7[C@H](O)[C@@H](O)[C@@H](O[C@H]8[C@H](O)[C@@H](O)[C@@H](O[C@H]1[C@H](O)[C@H]2O)O[C@@H]8CO)O[C@@H]7CO)O[C@@H]6CO)O[C@@H]5CO)O[C@@H]4CO)O[C@@H]3CO [Beta-Cyclodextrin]	-0.91%	70.6%	
C=C(C)[C@@H]1CC[C@]2(CO)CC[C@]3(C)[C@H](CC[C@@H]4[C@@]5(C)CC[C@H](O)C(C)(C)[C@@H]5CC[C@]43C)[C@@H]12 [Betulin]		69.8%	(%) Cytotoxicity (J2 HIE monolayers; human): 4.24%
C=C(C)[C@@H]1CC[C@]2(C(=O)O)CC[C@]3(C)[C@H](CC[C@@H]4[C@@]5(C)CC[C@H](O)C(C)(C)[C@@H]5CC[C@]43C)[C@@H]12 [Betulinic acid]		16.4%	
CCOC(=O)CCc1c(C)nc2c(c(C)nn2-c2ccc(C)cc2)c1C [C430-0518]			(%) Cytotoxicity (J2 HIE monolayers): -1.01%; (%) HuNoV GEs (GII.4 HuNoV; [1]): 170.30%
CCc1nn(CC(=O)NCCCN(CC)CC)c(=O)c2cc3sc(C)cc3n12 [C795-0720]			(%) Cytotoxicity (J2 HIE monolayers): 0.72%; (%) HuNoV GEs (GII.4 HuNoV; [1]): 100.75%
OC[C@H]1O[C@@H](O[C@@H]2OC=C[C@H]3[C@H](O)[C@@H]4O[C@]4(CO)[C@@H]23)[C@H](O)[C@@H](O)[C@@H]1O [Catalpol]	3.07%	104%	
C=CC1=C(C(=O)O)N2C(=O)[C@@H](NC(=O)/C(=N\O)c3csc(N)n3)[C@H]2SC1 [Cefdinir]	2.33%	118%	
CO/N=C(\C(=O)N[C@@H]1C(=O)N2C(C(=O)O)=C(C[N+]3(C)CCCC3)CS[C@H]12)c1csc(N)n1 [Cefepime Dihydrochloride Monohydrate]	3.73%	116%	
C=CC1=C(C(=O)O)N2C(=O)[C@@H](NC(=O)/C(=N\OCC(=O)O)c3csc(N)n3)[C@H]2SC1 [Cefixime]	2.28%	41.9%	
CO/N=C(\C(=O)N[C@@H]1C(=O)N2C(C(=O)O)=C(COC(C)=O)CS[C@H]12)c1csc(N)n1 [Cefotaxime sodium]	0.51%	10.1%	
Cc1cc(O)cc(C)c1Cl [Chloroxylenol]		65.9%	
Clc1ccc(Cn2c(CN3CCCC3)nc3ccccc32)cc1 [Clemizole]	3.11%	85.7%	

Compound	(%) Cytotoxicity (J2 HIE monolayers; human, 24 h, 10 μM)	activity at 10 µM (GII.4 HuNoV; [1])	further results
Cc1cn([C@H]2O[C@@H](CO)[C@H](O)[C@H]2F)c(=O)[nH]c1=O [Clevudine]	-0.09%	33.8%	
Clc1ccccc1C(c1ccccc1)(c1ccccc1)n1ccnc1 [Clotrimazole]	0.51%	159%	
CN(C)c1ccc(C(=C2C=CC(=[N+](C)C)C=C2)c2ccc(N(C)C)cc2)cc1 [Crystal Violet]	55.49%	14.5%	
Nc1ccn([C@@H]2O[C@H](CO)[C@@H](O)[C@@H]2O)c(=O)n1 [Cytarabine]	-0.77%	31.3%	
COC(=O)N[C@H](C(=O)N1CCC[C@H]1c1nc(-c2ccc(-c3ccc(-c4c[nH]c([C@@H]5CCCN5C(=O)[C@@H](NC(=O)OC)C(C)C)n4)cc3)cc2)c[nH]1)C(C)C [Daclatasvir dihydrochloride]	5.28%	178%	
CC(C)CN(C[C@@H](O)[C@H](Cc1ccccc1)NC(=O)O[C@H]1CO[C@H]2OCC[C@H]21)S(=O)(=O)c1ccc(N)cc1.CCO [Darunavir Ethanolate]			(%) HuNoV GEs (GII.4 HuNoV; [1]): 147.86%
CC(C)CN(C[C@@H](O)[C@H](Cc1ccccc1)NC(=O)O[C@H]1CO[C@H]2OCC[C@H]21)S(=O)(=O)c1ccc(N)cc1 [Darunavir]		91.8%	
C=C1CC[C@@H]2[C@](C)(COC(=O)CCC(=O)[O-])[C@H](OC(=O)CCC(=O)O)CC[C@@]2(C)[C@@H]1/C=C/C1=CCOC1=O.[K+] [Dehydroandrographolide Succinate Potasium Salt]			(%) HuNoV GEs (GII.4 HuNoV; [1]): 40.48%
C[C@@H]1CCO[C@H]2Cn3cc(C(=O)NCc4ccc(F)cc4F)c(=O)c(O)c3C(=O)N12 [Dolutegravir]		8.52%	
Cn1c(Cn2ccc(C(F)(F)F)c(Oc3cc(Cl)cc(C#N)c3)c2=O)n[nH]c1=O [Doravirine]		32.7%	
C[C@H](NC(=O)C(=O)Nc1ccccc1C(C)(C)C)C(=O)N[C@@H](CC(=O)O)C(=O)COc1c(F)c(F)cc(F)c1F [Emricasan]		198%	
Cc1nn(CCC(=O)Nc2cccc(C#N)c2)c(C)c1S(=O)(=O)N1CCCCC1 [G402-0939]			(%) HuNoV GEs (GII.4 HuNoV; [1]): 147.17%
Cc1cccc(N2CCN(S(=O)(=O)c3ccc4c(c3)CCCN4C(=O)C3CCC3)CC2)c1C [G855-2047]			(%) HuNoV GEs (GII.4 HuNoV; [1]): 133.69%
O=C(Nc1nc2ccc3scnc3c2s1)c1ccc2ccccc2c1 [KIN1148]			(%) HuNoV GEs (GII.4 HuNoV; [1]): 58.10%
NC(=O)N1CCC(CC(=O)N2CCC([C@H]3c4ncc(Br)cc4CCc4cc(Cl)cc(Br)c43)CC2)CC1 [Lonafarnib]		62.3%	
Cc1c(-c2cnccn2)ssc1=S [Oltipraz]		7.76%	
C[C@@]1(F)[C@H](O)[C@@H](CO)O[C@H]1n1ccc(=O)[nH]c1=O [PSI6206]			(%) HuNoV GEs (GII.4 HuNoV; [1]): 143.70%
NC(=O)c1ncn([C@@H]2O[C@H](CO)[C@@H](O)[C@H]2O)n1 [Ribavirin]		64.5%	
O=C(Nc1ccccc1)c1ccccc1O [Salicylanilide]		85.5%	
S=C(NCCc1ccccn1)Nc1ccc(Br)cn1 [Trovirdine]			activity at 10 µM (GII.4 HuNoV): 48.3%
CC(=O)Oc1c(C)c(C)c2c(c1C)CCC(C)(CCC[C@H](C)CCC[C@H](C)CCCC(C)C)O2 (stereo partly shown) [Vitamin E Acetate]		55.8%	
Cc1ccc(NC(=O)C(=O)NC2CC(C)(C)NC(C)(C)C2)cc1 [YYA-021]			(%) HuNoV GEs (GII.4 HuNoV; [1]): 54.17%
Cc1cn([C@H]2C[C@H](N=[N+]=[N-])[C@@H](CO)O2)c(=O)[nH]c1=O [Zidovudine]		57.6%	
Dermofongin			(%) HuNoV GEs (GII.4 HuNoV; [1]): 46.93%
Dicurone			(%) HuNoV GEs (GII.4 HuNoV; [1]): 90.75%
HZ-1157			(%) HuNoV GEs (GII.4 HuNoV; [1]): 36.74%
Maraviroc			(%) HuNoV GEs (GII.4 HuNoV; [1]): 52.60%
